Patent EP0583821A1, “Atriopeptins, guanylate cyclase activators, and phosphodiesterase inhibitors as treatment for glaucoma, hydrocephalus and cerebral edema (cranial fluid volume dysfunction)” (THE GENERAL HOSPITAL CORPORATION, priority 1987, dated 1988)

Biological target: T1, guanylate cyclase (Oryctolagus cuniculus, UniProt G1TXB5)
T1 sequence (G1TXB5 28-1056): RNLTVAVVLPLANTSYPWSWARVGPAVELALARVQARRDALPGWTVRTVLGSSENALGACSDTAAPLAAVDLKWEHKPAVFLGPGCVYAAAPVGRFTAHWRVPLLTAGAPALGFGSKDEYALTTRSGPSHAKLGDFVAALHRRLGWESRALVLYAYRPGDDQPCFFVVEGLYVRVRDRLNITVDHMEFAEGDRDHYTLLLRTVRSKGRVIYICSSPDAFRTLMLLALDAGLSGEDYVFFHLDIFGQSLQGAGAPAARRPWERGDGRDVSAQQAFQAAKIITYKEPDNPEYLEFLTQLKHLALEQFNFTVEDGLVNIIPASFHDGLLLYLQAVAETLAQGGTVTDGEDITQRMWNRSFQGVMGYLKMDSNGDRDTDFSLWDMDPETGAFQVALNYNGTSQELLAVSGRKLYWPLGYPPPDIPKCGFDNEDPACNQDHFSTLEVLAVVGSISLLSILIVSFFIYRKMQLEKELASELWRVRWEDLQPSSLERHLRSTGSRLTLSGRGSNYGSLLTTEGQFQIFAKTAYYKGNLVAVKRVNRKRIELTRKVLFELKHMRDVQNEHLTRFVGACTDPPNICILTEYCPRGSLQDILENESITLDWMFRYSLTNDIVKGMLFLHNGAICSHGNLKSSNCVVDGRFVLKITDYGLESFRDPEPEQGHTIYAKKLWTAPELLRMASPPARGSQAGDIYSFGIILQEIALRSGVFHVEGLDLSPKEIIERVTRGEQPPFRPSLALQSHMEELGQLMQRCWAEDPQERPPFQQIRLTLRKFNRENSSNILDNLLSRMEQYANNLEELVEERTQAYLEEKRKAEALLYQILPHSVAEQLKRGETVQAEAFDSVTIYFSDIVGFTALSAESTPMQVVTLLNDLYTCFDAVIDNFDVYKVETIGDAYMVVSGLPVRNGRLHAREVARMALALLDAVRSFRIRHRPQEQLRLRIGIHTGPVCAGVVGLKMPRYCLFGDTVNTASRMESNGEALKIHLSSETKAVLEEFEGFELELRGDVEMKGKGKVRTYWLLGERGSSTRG
Test: rANP activation of guanylate cyclase in membrane fractions of whole choroid plexus
Assay type: biochemical, rabbit
Set-up: tissues were homogenized (10 mg wet weight per milliliter); from tissue; host or cells: rabbit cerebral microvessels, choroid plexus, kidney, ciliary process, pia-arachnoid, cerebellum; 100,000 g P1 pellet
Experimental: The effect of rANP on membrane-bound guanylate cyclase and adenylate cyclase activity in various brain-barrier tissues and tissue fractions from rabbit was compared with its activity in cerebrum and cerebellum. Guanylate cyclase was measured as the rate of cyclic GMP formation by modifications of the technique of Waldman et al., supra, incorporated herein by reference. Briefly, tissues were homogenized (10 mg wet weight per milliliter) in 50 mM tris-HCl, pH 8.0, 1 mM EDTA, 1 mM dithiothreitol, and 250 mM sucrose and centrifuged at 100,000g to obtain a P1 pellet. Reaction tubes contained (in 0.3 ml), 50 mM tris, pH 7.6, 6 mM MnCl₂, 0.5 mM 3-isobutyl, 1-methylxanthine (IBMX), 10 mM theophylline, 3 mM GTP, hormone (in 0.03 ml containing 2.5 mM ascorbic acid and 0.1% bovine serum albumin), and 0.06 ml of P1 fraction (40 to 60 ug of protein). The reaction (4 minutes at 30°C) was started by addition of GTP and terminated by addition of 0.3 ml of 150 mM sodium acetate (pH 4.0) and boiling for 3 minutes. Cyclic GMP formed was subsequently measured by radioimmunoassay as described in example 6, infra. Under these conditions, guanylate cyclase activity was linear with time and tissue concentration. Adenylate cyclase activity in P1 fractions was measured according to the method described by Nathanson, et al., Science; 204:843 (1979); Mol. Pharmacol. 18:199 (1980), see Figure 1C . […] Neurosci. Abstr., 10, 899 (1984); Nathanson, et al., Soc. Neurosci. Abstr., 12, 1257 (1986), incorporated herein by reference, but with a lower concentration (0.025%) of trypsin and a rotating tissue tumbler which allowed cleaner fractionation of epithelial cells from erythrocytes and vascular components.
Adenylate cyclase activity could be stimulated by isoproterenol through β-adrenergic receptors known to be present in this tissue. Values shown are the mean ± range for duplicate enzyme determinations, each assayed for cyclic AMP or cyclic GMP in triplicate. […]

## Ser-Leu-Arg-Arg-atriopeptin III (APIII) [rANP 1-28]
Choroid plexus, SEM, N = 5
  Vmax for stimulation of basal activity: 58% ± 16%
Whole choroid plexus, five separate experiments, SEM, 4 min
  Ka for activation of the enzyme: 9.8 ± 5.1 nM

## rANP 13-28 (DRIGAQSGLGCNSFRY; Atrial natriuretic peptide; UniProt P01161 135-150, looked up, fragment)
Choroid plexus
  stimulation of guanylate cyclase: almost no stimulation
